Reference: patent US4616020A, “Medicaments, vicinal dihydroxyalkylxanthines contained therein, processes for the preparation of these xanthine compounds and intermediate products suitable for these” (Hoechst Aktiengesellschaft, priority 1981, dated 1986)
Like-named read-outs stand apart in the source and are kept apart here.

Legend:
[1] = tested on: acetylcholine-induced bronchospasm; assay: Bronchospasmolytic activity (Konzett-Rossler): inhibition of acetylcholine-induced bronchospasm in guinea-pigs; format: in vivo; settings: Cavia porcellus, guinea-pig, urethane anaesthesia, read-out: Bronchospasmolytic effect (ED50) compared to acetylcholine
Experimental: (§1) The test substances were administered in aqueous solution either intravenously (i.v.) or intraduodenally (i.d.). The ED50 values, which represent that dose in mg/kg at which the experimentally produced spasm is decreased by one half compared to that in untreated animals, were determined graphically from the dose-activity curves.

[2] = tested on: histamine-induced bronchospasm; assay: Bronchospasmolytic activity (Konzett-Rossler): inhibition of histamine-induced bronchospasm in guinea-pigs; format: in vivo; settings: Cavia porcellus, guinea-pig, urethane anaesthesia, read-out: Bronchospasmolytic effect (ED50) compared to histamine
Experimental: as §1

[3] = Acute toxicity, mortality within 7 days among NMRI mice after single administration; settings: in vivo, mouse
Excerpt: (§2) Determination of the LD50 values was by the standard method of the mortality occurring within 7 days among NMRI mice after a single intravenous (i.v.), intraperitoneal (i.p.) or oral (p.o.) administration.
*determined by the method of Litchfield and Wilcoxon (J. Pharmacol. exp.

Ratio of LD50 to ED50 = format: in vivo, mouse (LD50); guinea-pigs (ED50)
Experimental: as §1, §2

[4] = tested on: serotonine-induced bronchospasm; assay: Bronchospasmolytic activity (Konzett-Rossler): inhibition of serotonine-induced bronchospasm in guinea-pigs; format: in vivo; settings: Cavia porcellus, guinea-pig, urethane anaesthesia, read-out: Bronchospasmolytic effect (ED50) compared to serotonine
Experimental: as §1

NMRI mice = settings: mouse, i.v.; according to German Offenlegungsschrift 2,716,402; 10080 min; cited from earlier work
central nervous system [5] = settings: according to German Offenlegungsschrift No. 2,716,402; markedly less than theophylline; cited from earlier work
[6] = background statement; cited from earlier work
[7] = background statement; cited from earlier work; remark: listed apart in the source
[8] = cited from earlier work; for side-effects / therapeutic range: background statement
[9] = tested on: bronchospastic reactions induced with aerosols of acetylcholine, histamine and ascaris extract; assay: Pulmonary function test on the anaesthetized dog: inhibition of bronchospastic reactions induced with aerosols of acetylcholine, histamine and ascaris extract; format: in vivo
[10] = tested on: bronchospasm induced with bradykinin; assay: Inhibitory effect on bronchospasm induced in guinea-pigs with bradykinin; format: in vivo; settings: for ED50: Cavia porcellus, read-out: ED50, bronchospasm induced with bradykinin
Excerpt: Since it is regarded as proven that, apart from the biogenic amines, acetylcholine, histamine and serotonine, listed in Table 4, bradykinin also plays an important part as a mediator substance in the provocation of asthma attacks, the inhibitory effect on the bronchospasm induced in guinea-pigs with bradykinin was investigated.

central nervous system [11] = tested on: central nervous system; set-up: species or system mice; settings: mouse, in vivo, po
Experimental: In contrast, the compounds of the formula I according to the invention have no component stimulating the central nervous system, but, on the contrary, exert a slight depressant effect on the central nervous system which is assessed to be particularly advantageous from the therapeutic point of view. Thus, the spontaneous motility of mice, for example, is decreased by 53% for a period of 11 hours after oral administration of 50 mg/kg of the compound from Example 1.

[12] = LD50 i.v. mouse, ED50 i.v. guinea-pig
[13] = LD50 i.v. mouse from German Offenlegungsschrift 2,716,402, ED50 i.v. guinea-pig
[14] = LD50 i.p. mouse, ED50 i.v. guinea-pig

Row | SMILES | ED50 ([1]; iv) [mg/kg] | ED50 ([2]; iv) [mg/kg] | LD50 at 168 h ([3]; iv) [mg/kg] | ratio of LD50 to ED50 (head is drawing 107) (Ratio of LD50 to ED50; [12]) | ED50 ([4]; iv) [mg/kg] | also measured
1 | CCCn1c(=O)c2c(ncn2CCCCCC(O)CO)n(CC)c1=O (centres unmarked) [Example 51] | 2 | 2 | 300 | 150 | – | –
2 | CCn1c(=O)c2c(ncn2CCCCC(O)CO)n(CC)c1=O (centres unmarked) [Example 2, 1,3-Diethyl-7-(5,6-dihydroxyhexyl)xanthine] | 2 | 2 | 325 | 163 | 2 | –
3 | CCCn1c(=O)c2c(ncn2CC(O)CO)n(CCC)c1=O (centres unmarked) [7-(2,3-dihydroxypropyl)-1,3-dipropylxanthine] | > 10 | 6.5 | – | – | 10 | ratio of LD50 to ED50 (head is drawing 107) (Ratio of LD50 to ED50; [13]): < 32; Toxicity LD50 (NMRI mice): 287 mg/kg; stimulation of the central nervous system (central nervous system [5]): stimulation of the central nervous system; water solubility [6]: readily soluble in water; bronchospasmolytic activity compared to theophylline [7]: almost to reach the bronchospasmolytic activity of theophylline; acute toxicity compared to theophylline ([8]; German Offenlegungsschrift No. 2,716,402): lower acute toxicity; side-effects [8]: fewer disadvantageous side-effects
4 | CCCn1c(=O)c2c(ncn2CCCC(O)CO)n(CCC)c1=O (centres unmarked) [Example 13] | 6.5 | 6.5 | – | – | – | LD50 at 168 h ([3]; ip): 900 mg/kg; ratio of LD50 to ED50 (head is drawing 107) (Ratio of LD50 to ED50; [14]): 138
5 | CCCCn1c(=O)n(CCCC(O)CO)c(=O)c2c1ncn2C (centres unmarked) [Example 7, 3-Butyl-1-(4,5-dihydroxypentyl)-7-methylxanthine] | 3 | 6.5 | > 200 | > 42 | – | –
6 | CCCn1c(=O)n(C)c(=O)c2c1ncn2CCCCC(O)CO (centres unmarked) [Example 30] | 6.5 | 2 | 250 | 59 | – | –
7 | CCCn1c(=O)c2c(ncn2CCC(O)CO)n(CCC)c1=O (centres unmarked) [Example 12] | 6.5 | 10 | – | – | 10 | LD50 at 168 h ([3]; ip): > 600 mg/kg; ratio of LD50 to ED50 (head is drawing 107) (Ratio of LD50 to ED50; [14]): > 68
8 | CCn1c(=O)n(C(C)C)c(=O)c2c1ncn2CCCCC(O)CO (centres unmarked) [Example 25] | 2 | 6.5 | > 400 | > 114 | 2 | –
9 | NCCN [ethylenediamine] | – | – | – | – | – | side-effects [8]: deleterious effect on the cardiovascular system
10 | CCCn1c(=O)n(CCCCC(O)CO)c(=O)c2c1ncn2C (centres unmarked) [Example 10] | 3 | 3 | 250 | 83 | 3 | –
11 | CCn1c(=O)c2c(ncn2CCCCC(O)CO)n(C)c1=O (centres unmarked) [Example 17] | 2 | 6.5 | > 300 | > 60 | 6.5 | –
12 | CCn1c(=O)c2c(ncn2CC)n(CCCCC(O)CO)c1=O (centres unmarked) [Example 8, 1,7-Diethyl-3-(5,6-dihydroxyhexyl)xanthine] | 6.5 | 6.5 | > 300 | > 60 | 2 | –
13 | CCCCn1c(=O)c2c(ncn2CCCCC(O)CO)n(C)c1=O (centres unmarked) [Example 19] | 2 | 2 | 147 | 63 | 3 | –
14 | CCCn1c(=O)c2c(ncn2CCCC(O)C(C)O)n(CC)c1=O (centres unmarked) [Example 33] | 6 | 3 | > 200 | > 55 | 2 | –
15 | CCCCn1c(=O)c2c(ncn2CCCCC(O)CO)n(CC)c1=O (centres unmarked) [Example 26] | 2 | 1.6 | 205 | 146 | 0.6 | –
16 | Cn1c(=O)c2[nH]cnc2n(C)c1=O [theophylline, 1,3-dimethylxanthine] | – | – | – | – | – | effect on bronchospastic reactions ([9]; doses up to 20 mg/kg i.v.): no effect; water solubility [6]: lack of water solubility; therapeutic range [8]: very narrow therapeutic range
17 | CC(C)CCn1c(=O)c2c(ncn2CCCCC(O)CO)n(C)c1=O (centres unmarked) [Example 22] | 1 | 3 | 167 | 48 | 6.5 | –
18 | Cn1c(=O)c2c(ncn2CC(O)CO)n(C)c1=O (centres unmarked) [Diphylline, 7-(2,3-dihydroxypropyl)-1,3-dimethylxanthine] | > 30 | > 30 | – | – | > 30 | ratio of LD50 to ED50 (head is drawing 107) (Ratio of LD50 to ED50; [13]): < 30; Toxicity LD50 (NMRI mice): 886 mg/kg; stimulation of the central nervous system (central nervous system [5]): stimulation of the central nervous system; water solubility [6]: good water solubility; bronchospasmolytic activity compared to theophylline [7]: drastic decrease in the bronchospasmolytic activity; side-effects [8]: much less pronounced
19 | CCCCCn1c(=O)c2c(ncn2CCCCC(O)CO)n(C)c1=O (centres unmarked) [Example 21] | 3 | 3 | 155 | 52 | 3 | –
20 | CCn1c(=O)n(C)c(=O)c2c1ncn2CCCCC(O)CO (centres unmarked) [Example 24] | 6.5 | 2 | 300 | 49 | 10 | –
21 | CCCn1c(=O)c2c(ncn2CCCCC(O)CO)n(CC)c1=O (centres unmarked) [Example 1, 3-Ethyl-7-(5,6-dihydroxyhexyl)-1-propylxanthine] | 2 | 0.2 | 254 | 305 | 0.3 | ED50 ([1]; i.d. (intraduodenal)): 6.3 mg/kg; ED50 ([2]; i.d. (intraduodenal)): 25 mg/kg; ED50 ([4]; i.d. (intraduodenal)): 15 mg/kg; LD50 at 168 h ([3]; po): 1450 mg/kg; ratio of LD50 to ED50 (head is drawing 107) (Ratio of LD50 to ED50; LD50 p.o. mouse, ED50 i.d. guinea-pig): 94; ED50 ([10]; iv, guinea-pigs): 1 to 3 mg/kg; ED50 ([10]; i.d., guinea-pigs): 4 to 6.3 mg/kg; times more effective than theophylline-ethylenediamine, bradykinin bronchospasm ([10]; i.d.): about 6 times; times more effective than theophylline-ethylenediamine, bradykinin bronchospasm ([10]; i.v.): about 3 times; inhibitory effect on bronchospastic reactions ([9]; 12 mg/kg i.v.): significant inhibitory effect; decrease in spontaneous motility (central nervous system [11]; 50 mg/kg): 53%
22 | CCCn1c(=O)c2c(ncn2CCCCC(O)CO)n(C)c1=O (centres unmarked) [Example 18] | 6.5 | 6.5 | 300 | 46 | 6.5 | –
23 | Cn1c(=O)c2[nH]cnc2n(C)c1=O.NCCN [Theophylline-ethylenediamine, theophylline-ethylenediamine, reference compound] | 8.3 | 5.6 | 195 | – | 7.3 | LD50 at 168 h ([3]; po): 550 mg/kg; ED50 ([10]; iv): 3 to 10 mg/kg; ED50 [10]: 25 to 40 mg/kg; increase in spontaneous motility (central nervous system [11]; 30 mg/kg): 186%; therapeutic range [8]: not associated with a significant increase in the therapeutic range
24 | CCCCCn1c(=O)c2c(ncn2CCCCC(O)CO)n(CC)c1=O (centres unmarked) [Example 28] | 2 | 3 | 200 | 75 | 3 | –
